Measurements: patent publication US20230150953A1, “SUBSTITUTED ISOPHTHALIC ACID DIAMIDES” (Bayer Aktiengesellschaft, priority 2020, published 2023)

Columns and labels:
Type in all cases: in vivo
[1] = tested on: ABUTH Abutilon theophrasti; assay: Pre-emergence herbicidal action against harmful plants; conditions: 80 g/ha, scored visually after 3 weeks vs untreated controls
Description: (§1) The abbreviations used for the harmful plants mean: • ABUTH Abutilon theophrasti ALOMY Alopecurus myosuroides • AVEFA Avena fatua AMARE Amaranthus retroflexus • CYPES Cyperus esculentus DIGSA Digitaria sanguinalis • ECHCG Echinochloa crus-galli HORMU Hordeum murinum • LOLMU Lolium multiflorum LOLRI Lolium rigidum • MATIN Matricaria inodora PHBPU Pharbitis purpurea • POLCO Polygonum convolvulus SETVI Setaria viridis • STEME Stellaria media VERPE Veronica persica • VIOTR Viola tricolor 1. Pre-Emergence Herbicidal Action Against Harmful Plants Seeds of monocotyledonous and dicotyledonous weed plants and crop plants are laid out in sandy loam soil in wood-fiber pots and covered with soil. The compounds of the invention, formulated in the form of wettable powders (WP) or as emulsion concentrates (EC), are then applied to the surface of the covering soil in the form of an aqueous suspension or emulsion at a water application rate equivalent to 600 to 800 l/ha, with addition of 0.2% wetting agent. After the treatment, the pots are placed in a greenhouse and kept under good growth conditions for the trial plants. The damage to the test plants is scored visually after a test period of 3 weeks by comparison with untreated controls (herbicidal activity in percent (%): 100% activity=the plants have died, 0% activity=like control plants). […] The tables below illustrate, in an illustrative manner, the post-emergence herbicidal action of the compounds of the invention, the herbicidal activity being stated in percent.

[2] = tested on: ALOMY Alopecurus myosuroides; assay: as above; conditions: 80 g/ha, scored visually after 3 weeks vs untreated controls
Description: as §1

[3] = tested on: AMARE Amaranthus retroflexus; assay: as above; conditions: scored visually after 3 weeks vs untreated controls
Description: as §1

[4] = tested on: DIGSA Digitaria sanguinalis; assay: as above; conditions: scored visually after 3 weeks vs untreated controls
Description: as §1

[5] = tested on: ECHCG Echinochloa crus-galli; assay: as above; conditions: scored visually after 3 weeks vs untreated controls
Description: as §1

MATIN Matricaria inodora [6] = assay: as above; conditions: scored visually after 3 weeks vs untreated controls
Description: as §1

PHBPU Pharbitis purpurea [7] = assay: as above; conditions: 80 g/ha, scored visually after 3 weeks vs untreated controls
Description: as §1

[8] = tested on: POLCO Polygonum convolvulus; assay: as above; conditions: 80 g/ha, scored visually after 3 weeks vs untreated controls
Description: as §1

[9] = tested on: ABUTH Abutilon theophrasti; assay: Post-emergence herbicidal action against harmful plants; conditions: one-leaf stage, assessed visually after about 3 weeks vs untreated controls
Description: (§2) The abbreviations used for the harmful plants mean: • ABUTH Abutilon theophrasti ALOMY Alopecurus myosuroides • AVEFA Avena fatua AMARE Amaranthus retroflexus • CYPES Cyperus esculentus DIGSA Digitaria sanguinalis • ECHCG Echinochloa crus-galli HORMU Hordeum murinum • LOLMU Lolium multiflorum LOLRI Lolium rigidum • MATIN Matricaria inodora PHBPU Pharbitis purpurea • POLCO Polygonum convolvulus SETVI Setaria viridis • STEME Stellaria media VERPE Veronica persica • VIOTR Viola tricolor 2. Post-Emergence Herbicidal Action Against Harmful Plants Seeds of monocotyledonous and dicotyledonous weed and crop plants are laid out in sandy loam soil in wood-fiber pots, covered with soil and cultivated in a greenhouse under good growth conditions. 2 to 3 weeks after sowing, the test plants are treated at the one-leaf stage. The compounds of the invention, formulated in the form of wettable powders (WP) or as emulsion concentrates (EC), are then sprayed onto the green parts of the plants in the form of an aqueous suspension or emulsion at a water application rate equivalent to 600 to 800 l/ha, with addition of 0.2% wetting agent. After the test plants have been left to stand in the greenhouse under optimal growth conditions for about 3 weeks, the action of the preparations is assessed visually in comparison to untreated controls (herbicidal action in percent (%): 100% activity=the plants have died, 0% activity=like control plants). […] The tables below illustrate, in an illustrative manner, the post-emergence herbicidal action of the compounds of the invention, the herbicidal activity being stated in percent.

[10] = tested on: AMARE Amaranthus retroflexus; assay: as above; conditions: one-leaf stage, assessed visually after about 3 weeks vs untreated controls
Description: as §2

[11] = tested on: DIGSA Digitaria sanguinalis; assay: as above; conditions: one-leaf stage, assessed visually after about 3 weeks vs untreated controls
Description: as §2

MATIN Matricaria inodora [12] = assay: as above; conditions: one-leaf stage, assessed visually after about 3 weeks vs untreated controls
Description: as §2

PHBPU Pharbitis purpurea [13] = assay: as above; conditions: 20 g/ha, one-leaf stage, assessed visually after about 3 weeks vs untreated controls
Description: as §2

VERPE Veronica persica = assay: as above; conditions: one-leaf stage, assessed visually after about 3 weeks vs untreated controls
Description: as §2

SETVI Setaria viridis [14] = assay: Pre-emergence herbicidal action against harmful plants; conditions: 80 g/ha, scored visually after 3 weeks vs untreated controls
Description: as §1

[15] = tested on: ALOMY Alopecurus myosuroides; assay: Post-emergence herbicidal action against harmful plants; conditions: one-leaf stage, assessed visually after about 3 weeks vs untreated controls
Description: as §2

AVEFA Avena fatua = assay: as above; conditions: one-leaf stage, assessed visually after about 3 weeks vs untreated controls
Description: as §2

[16] = tested on: POLCO Polygonum convolvulus; assay: as above; conditions: one-leaf stage, assessed visually after about 3 weeks vs untreated controls
Description: as §2

SETVI Setaria viridis [17] = assay: as above; conditions: one-leaf stage, assessed visually after about 3 weeks vs untreated controls
Description: as §2

CCN(C)C(=O)c1c(C(F)(F)F)cc(F)c(C(=O)Nc2nnnn2CC)c1C [Example 2-96]
90%: Pre-emergence action at 80 g/ha against ABUTH in % [1] | Pre-emergence action at 80 g/ha against DIGSA in % [4] | Pre-emergence action at 80 g/ha against MATIN in % (MATIN Matricaria inodora [6]) | Post-emergence action at 20 g/ha against AMARE in % [10] | Post-emergence action at 20 g/ha against DIGSA in % [11] | Post-emergence action at 20 g/ha against PHBPU in % (PHBPU Pharbitis purpurea [13])
100%: Pre-emergence action at 20 g/ha against AMARE in % [3] | Pre-emergence action at 80 g/ha against AMARE in % [3]
80%: Pre-emergence action at 80 g/ha against ALOMY in % [2] | Pre-emergence action at 20 g/ha against DIGSA in % [4] | Pre-emergence action at 80 g/ha against ECHCG in % [5] | Pre-emergence action at 20 g/ha against MATIN in % (MATIN Matricaria inodora [6]) | Pre-emergence action at 80 g/ha against PHBPU in % (PHBPU Pharbitis purpurea [7]) | Pre-emergence action at 80 g/ha against POLCO in % [8] | Post-emergence action at 20 g/ha against ABUTH in % [9] | Post-emergence action at 5 g/ha against AMARE in % ([10]; 5 g/ha) | Post-emergence action at 20 g/ha against MATIN in % (MATIN Matricaria inodora [12]) | Post-emergence action at 20 g/ha against VERPE in % (VERPE Veronica persica)

Cc1c(C(=O)Nc2nnnn2C)cc(Cl)c(C(F)(F)F)c1C(=O)NC1CC1 [Example 1-85]
80%: Pre-emergence action at 80 g/ha against ALOMY in % [2] | Pre-emergence action at 80 g/ha against ECHCG in % [5] | Pre-emergence action at 20 g/ha against MATIN in % (MATIN Matricaria inodora [6]) | Pre-emergence action at 80 g/ha against PHBPU in % (PHBPU Pharbitis purpurea [7]) | Pre-emergence action at 80 g/ha against POLCO in % [8] | Post-emergence action at 20 g/ha against ALOMY in % [15] | Post-emergence action at 20 g/ha against AMARE in % [10] | Post-emergence action at 20 g/ha against AVEFA in % (AVEFA Avena fatua) | Post-emergence action at 20 g/ha against PHBPU in % (PHBPU Pharbitis purpurea [13]) | Post-emergence action at 20 g/ha against POLCO in % [16] | Post-emergence action at 20 g/ha against SETVI in % (SETVI Setaria viridis [17])
90%: Post-emergence action at 20 g/ha against DIGSA in % [11]
100%: Pre-emergence action at 80 g/ha against ABUTH in % [1] | Pre-emergence action at 20 g/ha against AMARE in % [3] | Pre-emergence action at 80 g/ha against AMARE in % [3] | Pre-emergence action at 20 g/ha against DIGSA in % [4] | Pre-emergence action at 80 g/ha against DIGSA in % [4] | Pre-emergence action at 80 g/ha against MATIN in % (MATIN Matricaria inodora [6]) | Pre-emergence action at 80 g/ha against SETVI in % (SETVI Setaria viridis [14])
